Consider 48 compounds from US20230123334A1, “AMINO LIPID COMPOUND, PREPARATION METHOD THEREFOR, AND APPLICATION THEREOF” (SHENZHEN SHENXIN BIOTECHNOLOGY CO., LTD., priority 2020, published 2023).

The subject of this experiment is HEK293 cells. Put plainly: Preliminary screening as DNA vectors, GFP transfection of HEK293 cells. It is filed as cell-based. As to conditions: amino lipid/DOPE liposome with 75 ng plasmid DNA (psin-EGFP-IRES-Puro); number of GFP-expressing cells divided by total nuclei (Hoechst). An outline of the steps: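 Lipid + DOPE liposomes (NaOAc, pH 5.6) complexed w/ 75 ng psin-EGFP-IRES-Puro, 30 min RT; added to 3-5×10^4 HEK293/well, 37° C. Hoechst 0.2 μg/mL at 20-24 h, imaged after further 20-24 h. Efficiency = GFP+ cells / total nuclei.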
Regarding `CCCCCCCCCCCCCCCCSc1nc(NCCCCCC)nc(NCCN2CCN(C)CC2)n1` [S16N6 D5], the “Absolute DNA transfection efficiency in HEK293 cells” value (“Absolute DNA transfection efficiency” for short) came out at 18.7%.

`CCCCCCCCCCCCCCCCSc1nc(NCCCCCC)nc(NCCCN(C)C)n1` [S16N6 D6]: the “Absolute DNA transfection efficiency” value came to 24.1%.

In the case of `CCCCCCCCCCCCCCCCSc1nc(NCCCCCC)nc(NCCN(CC)CC)n1` [S16N6 D7], the “Absolute DNA transfection efficiency” value is reported as 5.8%.

Turning to `CCCCCCCCCCCCCCCCSc1nc(NCCCCCC)nc(NCCCN2CCOCC2)n1` [S16N6 D8], the “Absolute DNA transfection efficiency” value is 11.6%.

On to `CCCCCCCCCCCCCCCCSc1nc(NCCCCCC)nc(NCCCN2CCN(C)CC2)n1` [S16N6 D9], for which the “Absolute DNA transfection efficiency” value came to 9.6%.

With `CCCCCCCCCCCCCCCCSc1nc(NCCCCCC)nc(NCC2CCN(C)CC2)n1` [S16N6 D10], the “Absolute DNA transfection efficiency” value stood at 14.5%.

Regarding `CCCCCCCCCCCCCCCCSc1nc(NCCCCCCC)nc(NCCN(C)C)n1` [S16N7 D1], the “Absolute DNA transfection efficiency” value stood at 13.0%.

For the compound `CCCCCCCCCCCCCCCCSc1nc(NCCCCCCC)nc(NCCN2CCOCC2)n1` [S16N7 D2], the “Absolute DNA transfection efficiency” value was 16.6%.

As for `CCCCCCCCCCCCCCCCSc1nc(NCCCCCCC)nc(NCCN2CCCC2)n1` [S16N7 D3], the “Absolute DNA transfection efficiency” value came out at 8.9%.

As for `CCCCCCCCCCCCCCCCSc1nc(NCCCCCCC)nc(NCCN2CCCCC2)n1` [S16N7 D4], the “Absolute DNA transfection efficiency” value was 6.9%.

For the compound `CCCCCCCCCCCCCCCCSc1nc(NCCCCCCC)nc(NCCN2CCN(C)CC2)n1` [S16N7 D5], the “Absolute DNA transfection efficiency” value is listed as 10.1%.

Regarding `CCCCCCCCCCCCCCCCSc1nc(NCCCCCCC)nc(NCCCN(C)C)n1` [S16N7 D6], the “Absolute DNA transfection efficiency” value amounted to 12.9%.

Regarding `CCCCCCCCCCCCCCCCSc1nc(NCCCCCCC)nc(NCCN(CC)CC)n1` [S16N7 D7], the “Absolute DNA transfection efficiency” value is recorded as 7.3%.

For the compound `CCCCCCCCCCCCCCCCSc1nc(NCCCCCCC)nc(NCCCN2CCOCC2)n1` [S16N7 D8], the “Absolute DNA transfection efficiency” value is 12.0%.

With `CCCCCCCCCCCCCCCCSc1nc(NCCCCCCC)nc(NCCCN2CCN(C)CC2)n1` [S16N7 D9], the “Absolute DNA transfection efficiency” value is given as 9.8%.

In the case of `CCCCCCCCCCCCCCCCSc1nc(NCCCCCCC)nc(NCC2CCN(C)CC2)n1` [S16N7 D10], the “Absolute DNA transfection efficiency” value stood at 3.4%.

In the case of `CCCCCCCCCCCCCCCCSc1nc(NCCCCCCCC)nc(NCCN(C)C)n1` [S16N8 D1], the “Absolute DNA transfection efficiency” value was 10.0%.

As for `CCCCCCCCCCCCCCCCSc1nc(NCCCCCCCC)nc(NCCN2CCOCC2)n1` [S16N8 D2], the “Absolute DNA transfection efficiency” value is recorded as 14.6%.

As for `CCCCCCCCCCCCCCCCSc1nc(NCCCCCCCC)nc(NCCN2CCCC2)n1` [S16N8 D3], the “Absolute DNA transfection efficiency” value is 13.2%.

As to `CCCCCCCCCCCCCCCCSc1nc(NCCCCCCCC)nc(NCCN2CCCCC2)n1` [S16N8 D4], the “Absolute DNA transfection efficiency” value was 8.4%.

`CCCCCCCCCCCCCCCCSc1nc(NCCCCCCCC)nc(NCCN2CCN(C)CC2)n1` [S16N8 D5]: the “Absolute DNA transfection efficiency” value came to 6.7%.

As to `CCCCCCCCCCCCCCCCSc1nc(NCCCCCCCC)nc(NCCCN(C)C)n1` [S16N8 D6], the “Absolute DNA transfection efficiency” value was 11.1%.

For the compound `CCCCCCCCCCCCCCCCSc1nc(NCCCCCCCC)nc(NCCN(CC)CC)n1` [S16N8 D7], the “Absolute DNA transfection efficiency” value stood at 4.6%.

Turning to `CCCCCCCCCCCCCCCCSc1nc(NCCCCCCCC)nc(NCCCN2CCOCC2)n1` [S16N8 D8], the “Absolute DNA transfection efficiency” value was 16.5%.

With `CCCCCCCCCCCCCCCCSc1nc(NCCCCCCCC)nc(NCCCN2CCN(C)CC2)n1` [S16N8 D9], the “Absolute DNA transfection efficiency” value worked out at 10.9%.

For `CCCCCCCCCCCCCCCCSc1nc(NCCCCCCCCC)nc(NCCN(C)C)n1` [S16N9 D1], the “Absolute DNA transfection efficiency” value amounted to 7.5%.

`CCCCCCCCCCCCCCCCSc1nc(NCCCCCCCCC)nc(NCCN2CCOCC2)n1` [S16N9 D2]: the “Absolute DNA transfection efficiency” value was found to be 7.4%.

As for `CCCCCCCCCCCCCCCCSc1nc(NCCCCCCCCC)nc(NCCN2CCCC2)n1` [S16N9 D3], the “Absolute DNA transfection efficiency” value is reported as 13.7%.

`CCCCCCCCCCCCCCCCSc1nc(NCCCCCCCCC)nc(NCCN2CCCCC2)n1` [S16N9 D4]: the “Absolute DNA transfection efficiency” value came out at 9.1%.

As for `CCCCCCCCCCCCCCCCSc1nc(NCCCCCCCCC)nc(NCCN2CCN(C)CC2)n1` [S16N9 D5], the “Absolute DNA transfection efficiency” value is listed as 7.8%.

As to `CCCCCCCCCCCCCCCCSc1nc(NCCCCCCCCC)nc(NCCCN(C)C)n1` [S16N9 D6], the “Absolute DNA transfection efficiency” value was determined as 11.7%.

In the case of `CCCCCCCCCCCCCCCCSc1nc(NCCCCCCCCC)nc(NCCN(CC)CC)n1` [S16N9 D7], the “Absolute DNA transfection efficiency” value is recorded as 5.3%.

In the case of `CCCCCCCCCCCCCCCCSc1nc(NCCCCCCCCC)nc(NCCCN2CCOCC2)n1` [S16N9 D8], the “Absolute DNA transfection efficiency” value was 6.7%.

Consider `CCCCCCCCCCCCCCCCSc1nc(NCCCCCCCCC)nc(NCCCN2CCN(C)CC2)n1` [S16N9 D9], for which the “Absolute DNA transfection efficiency” value was 9.5%.

As for `CCCCCCCCCCCCCCCCSc1nc(NCCCCCCCCC)nc(NCC2CCN(C)CC2)n1` [S16N9 D10], the “Absolute DNA transfection efficiency” value is reported as 6.9%.

Consider `CCCCCCCCCCCCCCCCSc1nc(NCCCCCCCCCCC)nc(NCCN(C)C)n1` [S16N11 D1], for which the “Absolute DNA transfection efficiency” value was 17.2%.

For the compound `CCCCCCCCCCCCCCCCSc1nc(NCCCCCCCCCCC)nc(NCCN2CCOCC2)n1` [S16N11 D2], the “Absolute DNA transfection efficiency” value is on record as 9.6%.

For `CCCCCCCCCCCCCCCCSc1nc(NCCCCCCCCCCC)nc(NCCN2CCCC2)n1` [S16N11 D3], the “Absolute DNA transfection efficiency” value is 16.6%.

On to `CCCCCCCCCCCCCCCCSc1nc(NCCCCCCCCCCC)nc(NCCN2CCCCC2)n1` [S16N11 D4], for which the “Absolute DNA transfection efficiency” value came out at 5.8%.

On to `CCCCCCCCCCCCCCCCSc1nc(NCCCCCCCCCCC)nc(NCCN2CCN(C)CC2)n1` [S16N11 D5], for which the “Absolute DNA transfection efficiency” value was determined as 9.5%.

Take `CCCCCCCCCCCCCCCCSc1nc(NCCCCCCCCCCC)nc(NCCCN(C)C)n1` [S16N11 D6]: the “Absolute DNA transfection efficiency” value amounted to 10.3%.

As for `CCCCCCCCCCCCCCCCSc1nc(NCCCCCCCCCCC)nc(NCCN(CC)CC)n1` [S16N11 D7], the “Absolute DNA transfection efficiency” value turned out to be 15.5%.

As to `CCCCCCCCCCCCCCCCSc1nc(NCCCCCCCCCCC)nc(NCCCN2CCOCC2)n1` [S16N11 D8], the “Absolute DNA transfection efficiency” value stood at 5.0%.

`CCCCCCCCCCCCCCCCSc1nc(NCCCCCCCCCCC)nc(NCCCN2CCN(C)CC2)n1` [S16N11 D9]: the “Absolute DNA transfection efficiency” value worked out at 9.6%.

Regarding `CCCCCCCCCCCCCCCCSc1nc(NCCCCCCCCCCC)nc(NCC2CCN(C)CC2)n1` [S16N11 D10], the “Absolute DNA transfection efficiency” value was found to be 0.0%.

With `CCCCCCCCCCCCCCCCSc1nc(NCCCCCCCCCCCC)nc(NCCN(C)C)n1` [S16N12 D1], the “Absolute DNA transfection efficiency” value was 4.2%.

For the compound `CCCCCCCCCCCCCCCCSc1nc(NCCCCCCCCCCCC)nc(NCCN2CCOCC2)n1` [S16N12 D2], the “Absolute DNA transfection efficiency” value turned out to be 0.0%.

For the compound `CCCCCCCCCCCCCCCCSc1nc(NCCCCCCCCCCCC)nc(NCCN2CCCC2)n1` [S16N12 D3], the “Absolute DNA transfection efficiency” value was 3.9%.
